Patent US20230129034A1, “TREATMENT OF DISEASE WITH ESTERS OF SELECTIVE RXR AGONISTS” (Io Therapeutics, Inc., priority 2017, published 2023)
Entries after “also recorded” stand apart in the source; their conditions may differ.

Experiments:
[1] = tested on: demyelinated caudal cerebellar peduncles of one year old rats; assay: Focal toxin (ethidium bromide) induced rat model of demyelination; format: in vivo
Procedure: The experiment uses rats of relatively advanced age (1 year) since such rats undergo remyelination in a less efficient manner, thereby providing data that are more relevant to the clinical treatment of human patients with multiple sclerosis or other demyelination disorders.
Focal demyelination is induced in one year old rats (approximately 300 g in weight) by injecting stereotactically 5 µl of ethidium bromide solution (0.01% vol/vol in saline) in a bilateral manner into the caudal cerebellar peduncles (CCP). […] The rats are killed on day 24 post-ethidium bromide treatment for analysis of remyelination by quantitative polymerase chain reaction (qPCR) and microscopy.

[2] = Plasma and brain concentrations after intravenous injection in ICR mice (LC-MS/MS); format: in vivo; conditions: 1 mg/kg IV
Procedure: The compounds were dissolved in 4% DMSO, 1% Tween80 and 95% PBS(v/v) at a concentration of 0.2 mg/ml. Each mouse was injected with a volume to deliver 1 mg/kg of the compound (corresponding to 3 mg/m^2).
At designated time points (0.5, 1.5, and 3 hr), with the mice under terminal isofluorane anesthesia, systemic blood sample (ca 0.4-0.5 mL) were collected by cardiac puncture into micro-tube containing sodium EDTA-K2 as anti-coagulant (n=3 at each time point). Blood samples from the IRX4204EE arm of the study had appropriate esterase inhibitors added. The blood was centrifuged at 13000 rpm for 3 min at 4° C. to obtain plasma and protein was precipitated with acetonitrile prior to being assayed for compound content. The brain was removed and transferred to a pre-weighed vessel for weight determination. Brain tissue was homogenized in five volumes of PBS, centrifuged, and the supernatant assayed for compound content. […] The same standard curve was used to quantitate analyte concentrations in both brain and plasma.

LXRβ/RXR = assay: Permissive heterodimer transactivation assay, CV-1 cells, 3x(PLTP/LXRE)-tk-Luc; format: cell-based; conditions: 20 hr, luciferase vs T0901317
Excerpt: (§1) For PPARy: CV-1 cells were transfected with 3x(rAOX/DR1)-tk-Luc reporter gene and an expression vector for PPARy. For FXR:CV-1 cells were transfected with 3x(IBABP/IRI)-tk-Luc reporter gene and vectors for FXR and RXRα. For LXR:CV-1 cells were transfected with 3x(PLTP/LXRE)-tk-Luc reporter gene with vectors for LXRα or LXRβ. For Nurr1: COS7 cells were transfected with 3xNBRE-tk-luc reporter gene and full length Nurr-1 with or without full-length RXRα plasmid. […] Luciferase data were normalized to co-transfected β-gal activity. Luciferase activity was expressed as percent of maximal activity obtained using specific agonists. Rosiglitazone (PPARy), GW4064 (FXR), T0901317 (LXR).

LXRα/RXR = assay: as above; format: cell-based; conditions: 20 hr, luciferase vs T0901317
Excerpt: as §1

RARα = target: T1, RARα (Homo sapiens, UniProt P10276); assay: RAR transactivation assay (ER-RAR fusion, ERE-tk-Luc reporter, CV-1 cells); format: cell-based
T1 construct: expressed in transfected cells; host or cells: CV-1
T1 sequence (P10276 183-417 limits assumed, species assumed): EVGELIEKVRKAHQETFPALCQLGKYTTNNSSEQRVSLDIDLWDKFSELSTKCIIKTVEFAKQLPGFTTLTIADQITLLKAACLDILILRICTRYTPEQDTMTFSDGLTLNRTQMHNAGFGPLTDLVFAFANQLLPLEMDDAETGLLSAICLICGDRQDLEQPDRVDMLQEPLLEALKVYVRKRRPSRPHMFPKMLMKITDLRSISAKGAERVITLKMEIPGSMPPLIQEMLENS
Excerpt: Data are mean values ± SE from five independent experiments.

Th17 cells = assay: Th17 cell differentiation / IL-17 production in vitro; format: cell-based
EAE in B6 mice = assay: EAE dose titration experiment in B6 mice with spleen and CNS cell analysis; format: in vivo; conditions: for EAE disease overall, dose titration: 50 µg, 100 µg or 200 µg every day from day 8
Procedure: A dose titration experiment was also conducted in EAE mice. EAE was induced in 28 B6 mice with MOG/CFA and PT as above. Mice were scored on day 7 as indicated above and divided into groups by score so means are as equal as possible.
At the completion of the experiment, the vehicle control and 200 µg/day groups were euthanized and spleen and CNS samples obtained.

Treg cells = assay: Treg cell differentiation in in vitro cell culture; format: cell-based
FXR/RXR = target: T2, FXR/RXR (Homo sapiens, UniProt P19793); assay: Permissive heterodimer transactivation assay, CV-1 cells, 3x(IBABP/IRI)-tk-Luc; format: cell-based; conditions: 20 hr, luciferase vs GW4064
T2 construct: expressed in transfected cells; host or cells: CV-1
T2 sequence (P19793 whole entry): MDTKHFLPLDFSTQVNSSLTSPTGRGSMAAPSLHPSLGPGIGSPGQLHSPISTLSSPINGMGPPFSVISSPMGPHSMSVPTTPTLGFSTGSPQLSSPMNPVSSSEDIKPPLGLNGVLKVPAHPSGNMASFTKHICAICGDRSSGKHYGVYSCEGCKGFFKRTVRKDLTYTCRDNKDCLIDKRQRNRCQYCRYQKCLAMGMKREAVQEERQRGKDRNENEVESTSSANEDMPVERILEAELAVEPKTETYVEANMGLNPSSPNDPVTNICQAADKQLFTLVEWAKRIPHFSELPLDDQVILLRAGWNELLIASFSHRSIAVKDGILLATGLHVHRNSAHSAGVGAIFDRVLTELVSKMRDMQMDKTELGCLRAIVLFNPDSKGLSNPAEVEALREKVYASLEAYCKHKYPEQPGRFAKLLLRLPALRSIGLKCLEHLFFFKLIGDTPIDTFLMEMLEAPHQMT
T2 sequence (Q96RI1 whole entry partner): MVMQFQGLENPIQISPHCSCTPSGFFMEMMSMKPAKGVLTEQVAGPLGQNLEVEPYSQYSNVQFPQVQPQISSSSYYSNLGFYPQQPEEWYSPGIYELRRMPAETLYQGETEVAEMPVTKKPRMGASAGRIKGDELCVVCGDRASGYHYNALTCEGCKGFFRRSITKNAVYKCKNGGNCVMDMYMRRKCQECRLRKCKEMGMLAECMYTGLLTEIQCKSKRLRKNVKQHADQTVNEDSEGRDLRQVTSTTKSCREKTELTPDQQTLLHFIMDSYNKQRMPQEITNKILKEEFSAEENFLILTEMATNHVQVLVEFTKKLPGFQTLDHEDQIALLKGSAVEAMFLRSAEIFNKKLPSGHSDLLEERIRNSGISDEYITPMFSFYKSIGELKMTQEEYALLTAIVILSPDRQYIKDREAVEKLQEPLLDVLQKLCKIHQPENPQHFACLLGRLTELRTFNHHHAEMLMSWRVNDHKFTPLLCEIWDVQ
Excerpt: as §1

[3] = tested on: experimental autoimmune encephalomyelitis (EAE) in C57BL/6 (B6) mice; assay: EAE in C57BL/6 (B6) mice, MOG peptide induced; format: in vivo; conditions: 50 µg i.p. every other day from day 7
Procedure: Mice were also given 200 ng of pertussis toxin in PBS administered by inter-peritoneal (i.p.) injection on the same day as MOG emulsion injection (day 0) and 2 days later (day 2). […] Mice were scored using the following scale: 0 - Mice have no disease, 1 -Mice have distal limp tail or rear leg weakness (paresis), 1.5 - Mice have distal limp tail and rear leg weakness, 2 - Mice have complete limp tail and rear leg weakness, 2.5 - Mice have complete limp tail and weakness in both rear legs, 3 - Mice have complete limp tail and paralysis in both rear legs, 3.5 - Mice have complete limp tail, paralysis in both rear legs, and forelimb weakness. Mice receiving a score of 3.5 were immediately euthanized.

Nurr1/RXR heterodimer = target: T3, Nurr1/RXR heterodimer (Homo sapiens, UniProt P19793); assay: Nurr1/RXR transactivation assay, COS7 cells, 3xNBRE-tk-luc; format: cell-based; conditions: for activation of the Nurr1/RXR heterodimer: COS7 cells, 20 hr
T3 construct: full length Nurr-1 with or without full-length RXRα plasmid; expressed in transfected cells; host or cells: COS7
T3 sequence (P19793 whole entry): as the sequence (P19793 whole entry) above
T3 sequence (P43354 whole entry partner): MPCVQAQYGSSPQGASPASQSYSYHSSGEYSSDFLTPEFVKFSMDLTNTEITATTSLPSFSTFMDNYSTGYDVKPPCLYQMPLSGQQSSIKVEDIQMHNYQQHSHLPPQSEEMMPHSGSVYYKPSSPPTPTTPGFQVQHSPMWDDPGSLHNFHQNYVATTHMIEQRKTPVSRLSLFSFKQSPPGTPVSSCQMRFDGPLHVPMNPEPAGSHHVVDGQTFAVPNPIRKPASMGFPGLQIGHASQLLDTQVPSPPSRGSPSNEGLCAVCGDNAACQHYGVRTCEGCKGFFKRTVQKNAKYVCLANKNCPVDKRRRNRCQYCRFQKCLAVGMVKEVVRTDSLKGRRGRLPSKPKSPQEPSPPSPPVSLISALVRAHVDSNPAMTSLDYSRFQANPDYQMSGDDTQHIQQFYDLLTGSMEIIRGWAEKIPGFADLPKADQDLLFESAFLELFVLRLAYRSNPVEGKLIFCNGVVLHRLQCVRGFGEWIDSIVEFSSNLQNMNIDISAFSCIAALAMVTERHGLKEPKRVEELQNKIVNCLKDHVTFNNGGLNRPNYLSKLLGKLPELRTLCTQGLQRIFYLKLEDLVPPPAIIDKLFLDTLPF
Excerpt: as §1

[4] = tested on: CNS infiltrating leukocytes in C57BL/6 (B6) mice; assay: CNS infiltrating cells in EAE B6 mice (flow cytometry, day 20); format: in vivo; conditions: day 20 after immunization
Procedure: To determine whether a RXR agonist can reduce central nervous system (CNS) infiltrating cells, C57BL/6 (B6) mice were treated as described in Example 6. On day 20 after immunization, mice were sacrificed and perfused with phosphate buffered saline (PBS). Brain and spinal cord tissue was isolated, digested with DNase and LIBERASE DL® (Roche Diagnostics, Indianapolis, IN) for 30 minutes, and homogenized through 70 micron nylon mesh filters. Resulting cells were placed over a Percoll gradient to remove myelin. The remaining cells (microglia and CNS infiltrating cells) were counted, stained for molecules of interest, and run on a flow cytometer. Based on the frequencies obtained by FACS of these cell populations, total cell numbers of CNS infiltrating leukocytes expressing CD45, including CD4^+ T cells and CD11c^+ CD11b^+ myeloid dendritic cells (DC), were calculated.

[5] = 10 mg/kg/day oral gavage, day 7 to day 21
[6] = 200 µg/day, restimulation with PMA/Ionomycin

For CC(/C=C/[C@@H]1C[C@]1(C)c1ccc2c(c1)C(C)(C)CCC2(C)C)=C\C(=O)O [IRX4204, 3,7-dimethyl-6(S),7(S)-methano,7-[1,1,4,4-tetramethyl-1,2,3,4-tetrahydronaphth-7-yl]2(E),4(E) heptadienoic acid], the “Mbp expression (real-time qPCR of lesion samples)” value [1, 5] was “increase in Mbp expression”, the “Nkx2.2+ oligodendrocyte precursor cells (OPCs) in lesions” value [1, 5] was “increased” and the “Pdgfra expression (real-time qPCR of lesion samples)” value [1, 5] was “increase in Pdgfra expression”. The “density of CC1+ differentiated oligodendrocytes in lesions” value [1, 5] was “increased”, the “density of Olig2+ oligodendrocyte lineage cells in lesions” value [1, 5] was “increased” and the “remyelinated axons (ultrastructural analysis of CCP lesions)” value [1, 5] was “more remyelinated axons”. The concentration at 3 h ([2]; male, ICR, mouse, brain, 3 hours post-administration) was 7.9 to 8.2 nM, the “activation of LXRβ/RXR heterodimer” value (LXRβ/RXR) was “not to transactivate; also recorded: does not activate” and the “activation of LXRα/RXR heterodimer” value (LXRα/RXR) was “not to transactivate; also recorded: does not activate”. The “EC10 with RARα” value (RARα) was “about 300 nM”, the “production of IL-17” value (Th17 cells; 1 nM) was “profoundly inhibits production of IL-17” and the “EAE disease overall, dose titration” value (EAE in B6 mice) was “significantly less disease overall”. For the same molecule, the “CCR6 expression on CD4 T cells, spleen” value (EAE in B6 mice; 200 µg/day) was “lowered”, the “co-expression of IFNg and IL-17A by CD4 T cells in CNS” value (EAE in B6 mice; 200 µg/day) was “not significantly different between groups” and the “frequency of CD4+ CD25hi cells, spleen” value (EAE in B6 mice; 200 µg/day) was “not altered”. The “number of CD4+ CD25hi cells, spleen” value (EAE in B6 mice; 200 µg/day) was “reduced”, the “total number of effector and memory CD4 T cells (CD44), spleen” value (EAE in B6 mice; 200 µg/day) was “decreased” and the “total number of infiltrating CD4 T cells in the CNS” value (EAE in B6 mice; 200 µg/day) was “reduced”. The “total number of recently activated CD4 T cells (CD69 and CD44), spleen” value (EAE in B6 mice; 200 µg/day) was “also decreased”, the “IFNγ production by CNS infiltrating lymphocytes” value (EAE in B6 mice; [6]) was “significantly reduced” and the “TNF production by CNS infiltrating lymphocytes” value (EAE in B6 mice; [6]) was “significantly reduced”. For the same molecule, the “formation of Treg cells” value (Treg cells; 1 nM) was “substantially enhances the formation of Treg cells”, the “activation of FXR/RXR heterodimer” value (FXR/RXR) was “not to transactivate; also recorded: does not activate” and the “symptoms of EAE (disease severity score)” value [3] was “significantly reduces the symptoms of EAE”. For the same molecule, the “concentration at which transactivation of the Nurr1/RXR heterodimer is apparent” value (Nurr1/RXR heterodimer) was 100 pM, the “concentration sufficient to achieve full activation of Nurr1/RXR” value (Nurr1/RXR heterodimer) was 1 nM and the “activation of the Nurr1/RXR heterodimer” value (Nurr1/RXR heterodimer) was “selectively activates”. The “infiltration of CD4+ cells into the CNS” value [4] was “significant reduction” and the “infiltration of CD11c+ CD11b+ cells (myeloid DC) into the CNS” value [4] was “significant reduction”.

With CCOC(=O)/C=C(C)/C=C/[C@@H]1C[C@]1(C)c1ccc2c(c1)C(C)(C)CCC2(C)C [IRX4204EE, 3,7-dimethyl-6(S),7(S)-methano,7-[1,1,4,4-tetramethyl-1,2,3,4-tetrahydronaphth-7-yl]2(E),4(E) heptadienoic ethyl ester] the “activity in focal toxin rat model relative to IRX4204 (same end-points)” value ([1]; rat, in vivo) was “somewhat more active than the free acid”, the “concentration of the ester in the brain over the course of the experiment” value ([2]; 0.5 to 3 hr) was “rose slightly” and the “concentration of the ester in blood compared with brain” value ([2]; 3 hour time point) was “approximately the same”. For the same molecule, the “blood concentration of the ester itself relative to IRX4204” value ([2]; 3 hours) was “about 5 fold”, the “concentration of IRX4204 in the blood from the ester form compared with the free acid form” value ([2]; 3 hours) was “about the same” and the “blood concentration of IRX4204 due to conversion of IRX4204EE relative to that due to IV injection of IRX4204” value ([2]; half-hour time point) was “about one sixth”. For the same molecule, the “activation of LXRβ/RXR heterodimer” value (LXRβ/RXR) was “very little activity”, the “activation of LXRα/RXR heterodimer” value (LXRα/RXR) was “very little activity” and the EC50 (RARα; CV-1 cells, 20 hours, luciferase activity) was over 1000 nM. For the same molecule, the “inhibiting the differentiation of Th17 cells, relative to parent form” value (Th17 cells; in vitro cell culture) was “less active than its parent form”, the “EAE disease overall, dose titration” value (EAE in B6 mice) was “more active than IRX4204 at each of the doses tested” and the “promoting the differentiation of Treg cells, relative to parent form” value (Treg cells; in vitro cell culture) was “less active than its parent form”. The “activation of FXR/RXR heterodimer” value (FXR/RXR) was “very little activity”, the “symptoms of EAE (disease severity score)” value [3] was “more effective than IRX4204” and the “activation of the Nurr1/RXR heterodimer” value (Nurr1/RXR heterodimer) was “very little activity”. The “infiltration of CD4+ cells into the CNS” value [4] was “even greater reduction” and the “infiltration of CD11c+ CD11b+ cells (myeloid DC) into the CNS” value [4] was “even greater reduction”.
